Reference: ChEMBL document CHEMBL4673400, “Potential of Cyclin-Dependent Kinase Inhibitors as Cancer Therapy” (ACS Med Chem Lett, 2021)

How the values were obtained:
[1] = molecular target: Cyclin-dependent kinase 2/cyclin E1 (Homo sapiens, UniProt P24941)
Description: Inhibition of recombinant full length wild-type phosphorylated CDK2/Cyclin E1 (unknown origin) expressed in baculovirus expression system assessed as reduction in production of ADP using 5-FAM-QSPKKG-CONH2 peptide as substrate preincubated with enzyme for 15 mins followed by further incubation with ATP for 45 mins by fluorescence-based microfluidic mobility shift assay

CDK6/cyclin D1 = CDK6/cyclin D1 (Homo sapiens, UniProt Q00534)
Chain of CDK6/cyclin D1 (P24385 whole entry): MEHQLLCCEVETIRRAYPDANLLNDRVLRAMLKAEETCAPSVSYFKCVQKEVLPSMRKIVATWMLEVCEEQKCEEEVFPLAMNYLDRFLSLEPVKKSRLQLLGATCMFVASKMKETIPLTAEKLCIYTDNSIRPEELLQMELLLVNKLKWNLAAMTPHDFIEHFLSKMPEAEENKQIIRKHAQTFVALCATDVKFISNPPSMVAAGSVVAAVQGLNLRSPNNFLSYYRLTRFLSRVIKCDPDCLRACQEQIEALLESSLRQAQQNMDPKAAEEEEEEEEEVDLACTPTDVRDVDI
Chain of CDK6/cyclin D1 (Q00534 whole entry): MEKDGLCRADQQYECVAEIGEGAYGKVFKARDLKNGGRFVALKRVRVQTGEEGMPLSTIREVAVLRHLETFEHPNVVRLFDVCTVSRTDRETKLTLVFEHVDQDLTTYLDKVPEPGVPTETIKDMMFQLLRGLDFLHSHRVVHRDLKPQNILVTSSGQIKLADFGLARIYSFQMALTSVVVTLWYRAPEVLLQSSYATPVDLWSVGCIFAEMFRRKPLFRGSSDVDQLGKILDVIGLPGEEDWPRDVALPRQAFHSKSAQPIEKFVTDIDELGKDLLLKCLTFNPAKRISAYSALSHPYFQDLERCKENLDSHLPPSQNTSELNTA

Compound | Ki [1] | Ki (CDK6/cyclin D1)
C[C@@]1(O)CCC[C@H]1n1c(=O)c(CC#N)cc2cnc(NC3CCN(S(C)(=O)=O)CC3)nc21 | 0.16 nM | –
C[C@@]1(O)CCC[C@H]1n1c(=O)ccc2cnc(NC3CCN(S(=O)(=O)CC4CC4)CC3)nc21 | 0.25 nM | 0.88 nM
C[C@@H]1[C@H](O)CC[C@H]1n1c(=O)ccc2cnc(NC3CCN(S(C)(=O)=O)CC3)nc21 | 0.12 nM | –
CNS(=O)(=O)N1CCC(Nc2ncc3ccc(=O)n([C@@H]4CCC[C@@]4(C)O)c3n2)CC1 | 0.28 nM | –
C[C@]1(O)CCC[C@@H]1n1c(=O)ccc2cnc(NC3CCN(S(=O)(=O)c4nccs4)CC3)nc21 | 7.32 nM | –
C[C@@]1(O)CCC[C@H]1n1c(=O)ccc2cnc(NC3CCN(S(N)(=O)=O)CC3)nc21 | 0.1 nM | –
CNS(=O)(=O)N1CCC(Nc2ncc3cc(Cl)c(=O)n([C@@H]4CCC[C@@]4(C)O)c3n2)CC1 | 0.2 nM | –
CS(=O)(=O)N1CCC(Nc2ncc3cc(CC(N)=O)c(=O)n([C@@H]4CCC[C@@H](O)C4)c3n2)CC1 | 1.73 nM | –
